Laboratory results from patent US20180148418A1, “AMIDO-SUBSTITUTED CYCLOHEXANE DERIVATIVES” (Bayer Pharma Aktiengesellschaft, priority 2015, published 2018).

Test system: wildtype Wnt signaling cascade
Experiment: HEK293 TOP assay (Super TopFlash luciferase reporter, Wnt-3a stimulated)
Type: cell-based
Conditions: Homo sapiens, HEK293, 16 h, HEK293 TOP reporter cells, Wnt3a at EC50, 16 hours
Method in brief: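 Compound series (50 μM down to 15 nM, 3.16-fold) diluted from DMSO 50-fold into CAFTY buffer, pH 7.4, 2 mM Ca^2+, 0.01% BSA, applied to Wnt-3a-stimulated HEK293 TopFlash and FOP reporter lines in parallel. Cells seeded 10000/well 24 h before; luciferase signal measured.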

**Q.** `O=C(NCC1CCCO1)c1nc[nH]c1C(=O)N[C@H]1CC[C@H](C(=O)Nc2cc(C(F)(F)F)ccc2Cl)CC1` (stereo partly drawn) [Example 146, N^5-(trans-4-{[2-chloro-5-(trifluoromethyl)phenyl]carbamoyl}cyclohexyl)-N^4-(tetrahydrofuran-2-ylmethyl)-1H-imidazole-4,5-dicarboxamide] was tested. Which IC50 did it give?
**A.** Its IC50 is 720 nM.

**Q.** Which IC50 does the source give for `CNC(=O)c1nc[nH]c1C(=O)N[C@H]1CC[C@H](C(=O)Nc2ncncc2Cl)CC1` [Example 147, N^5-{trans-4-[(5-chloropyrimidin-4-yl)carbamoyl]cyclohexyl}-N^4-methyl-1H-imidazole-4,5-dicarboxamide] here?
**A.** The IC50 was 54 nM.

**Q.** `O=C(N[C@H]1CC[C@]2(CCN(c3ccc(F)cc3Cl)C2=O)CC1)c1cnn2cccnc12` [Example 148, N-[(cis)-2-(2-chloro-4-fluorophenyl)-1-oxo-2-azaspiro[4.5]dec-8-yl]pyrazolo[1,5-a]pyrimidine-3-carboxamide] was tested. Which IC50 did it give?
**A.** The IC50 was 140 nM.

**Q.** Which IC50 does the source give for `O=C(N[C@H]1CC[C@H](C(=O)Nc2cnc(C(F)(F)F)cc2Cl)CC1)c1cnn2cccnc12` [Example 149, N-(trans-4-{[4-chloro-6-(trifluoromethyl)pyridin-3-yl]carbamoyl}cyclohexyl)pyrazolo[1,5-a]pyrimidine-3-carboxamide] here?
**A.** Its IC50 is 190 nM.

**Q.** How did the IC50 turn out when `Cc1cc(NC(=O)[C@H]2CC[C@H](NC(=O)c3cnn4cccnc34)CC2)c(Cl)cc1F` [Example 150, N-{trans-4-[(2-chloro-4-fluoro-5-methylphenyl)carbamoyl]cyclohexyl}pyrazolo[1,5-a]pyrimidine-3-carboxamide] was run?
**A.** The IC50 was 80 nM.

**Q.** Which IC50 does the source give for `Cc1cc(F)cc(Cl)c1NC(=O)[C@H]1CC[C@H](NC(=O)c2cnn3cccnc23)CC1` [Example 151, N-{trans-4-[(2-chloro-4-fluoro-6-methylphenyl)carbamoyl]cyclohexyl}pyrazolo[1,5-a]pyrimidine-3-carboxamide] here?
**A.** The IC50 was 110 nM.

**Q.** Which IC50 does the source give for `CCN(c1ccc(F)cc1Cl)C(=O)[C@H]1CC[C@H](NC(=O)c2cnn3cccnc23)CC1` [Example 154, N-{trans-4-[(2-chloro-4-fluorophenyl)(ethyl)carbamoyl]cyclohexyl}pyrazolo[1,5-a]pyrimidine-3-carboxamide] here?
**A.** Its IC50 is 130 nM.

**Q.** `CN(c1ccc(F)cc1Cl)C(=O)[C@H]1CC[C@H](NC(=O)c2cnn3cccnc23)CC1` [Example 155, N-{trans-4-[(2-chloro-4-fluorophenyl)(methyl)carbamoyl]cyclohexyl}pyrazolo[1,5-a]pyrimidine-3-carboxamide] was tested. Which IC50 did it give?
**A.** The IC50 was 130 nM.

**Q.** How did the IC50 turn out when `CN(c1ccccc1)C(=O)[C@H]1CC[C@H](NC(=O)c2cnn3cccnc23)CC1` [Example 156, N-{trans-4-[methyl(phenyl)carbamoyl]cyclohexyl}pyrazolo[1,5-a]pyrimidine-3-carboxamide] was run?
**A.** The IC50 was 190 nM.

**Q.** With `CNC(=O)c1nc[nH]c1C(=O)N[C@H]1CC[C@H](C(=O)N(CCO)c2ccc(F)cc2Cl)CC1` [Example 157, N^5-{trans-4-[(2-chloro-4-fluorophenyl)(2-hydroxyethyl)carbamoyl]cyclohexyl}-N^4-methyl-1H-imidazole-4,5-dicarboxamide] as the molecule, how does the IC50 read?
**A.** Its IC50 is 8300 nM.

**Q.** `CC1CCN(CCNC(=O)c2nc[nH]c2C(=O)N[C@H]2CC[C@@]3(CCN(c4ccc(F)cc4Cl)C3=O)CC2)CC1` [Example 160, N^5-[(trans)-2-(2-chloro-4-fluorophenyl)-1-oxo-2-azaspiro[4.5]dec-8-yl]-N^4-[2-(4-methylpiperidin-1-yl)ethyl]-1H-imidazole-4,5-dicarboxamide] was tested. Which IC50 did it give?
**A.** Its IC50 is 13 nM.

**Q.** For `O=C(NCCN1CCCCC1)c1nc[nH]c1C(=O)N[C@H]1CC[C@@]2(CCN(c3ccc(F)cc3Cl)C2=O)CC1` [Example 161, N^5-[(trans)-2-(2-chloro-4-fluorophenyl)-1-oxo-2-azaspiro[4.5]dec-8-yl]-N^4-[2-(piperidin-1-yl)ethyl]-1H-imidazole-4,5-dicarboxamide], which IC50 is on record?
**A.** Its IC50 is 55 nM.

**Q.** How did the IC50 turn out when `CC(C)NC(=O)c1nc[nH]c1C(=O)N[C@H]1CC[C@@]2(CCN(c3ccc(F)cc3Cl)C2=O)CC1` [Example 162, N^5-[(trans)-2-(2-chloro-4-fluorophenyl)-1-oxo-2-azaspiro[4.5]dec-8-yl]-N^4-isopropyl-1H-imidazole-4,5-dicarboxamide] was run?
**A.** Its IC50 is 9.4 nM.

**Q.** For `COCCNC(=O)c1nc[nH]c1C(=O)N[C@H]1CC[C@@]2(CCN(c3ccc(F)cc3Cl)C2=O)CC1` [Example 163, N^5-[(trans)-2-(2-chloro-4-fluorophenyl)-1-oxo-2-azaspiro[4.5]dec-8-yl]-N^4-(2-methoxyethyl)-1H-imidazole-4,5-dicarboxamide], which IC50 is on record?
**A.** The IC50 was 2.4 nM.

**Q.** `O=C(NC1CC1)c1nc[nH]c1C(=O)N[C@H]1CC[C@@]2(CCN(c3ccc(F)cc3Cl)C2=O)CC1` [Example 165, N^5-[(trans)-2-(2-chloro-4-fluorophenyl)-1-oxo-2-azaspiro[4.5]dec-8-yl]-N^4-cyclopropyl-1H-imidazole-4,5-dicarboxamide] was tested. Which IC50 did it give?
**A.** The IC50 was 3.8 nM.

**Q.** With `O=C(N[C@H]1CC[C@@]2(CCN(c3ccc(F)cc3Cl)C2=O)CC1)c1[nH]cnc1C(=O)N1CC(F)C1` [Example 166, N-[(trans)-2-(2-chloro-4-fluorophenyl)-1-oxo-2-azaspiro[4.5]dec-8-yl]-4-[(3-fluoroazetidin-1-yl)carbonyl]-1H-imidazole-5-carboxamide] as the molecule, how does the IC50 read?
**A.** Its IC50 is 0.69 nM.
